Experimental data taken from PubChem BioAssay AID248 (DTP/NCI, 2004).
Several values for one entry are separate records, joined by “and”; a condition that tells them apart may be missing. Identical values can stand only once. Toxic doses and inconclusive results are not listed. Cut-off read from the data, not from the text of the source: active = T/C of 150% or more; inactive = T/C below 125%.

Tested on: L1210 leukemia ip in BDF1 mice, survival T/C
Assay: NCI In Vivo Anticancer Drug Screen. Data for tumor model L1210 Leukemia (intraperitoneal) in B6D2F1 (BDF1) mice
Conditions: endpoint: mean survival time, higher = longer survival
Summary of the method: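 Each compound was tested against a transplantable tumor grown in mice. The endpoint was survival, with treated animals benchmarked against vehicle controls as a simple ratio.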

[1] = dose: 100.0 mg/kg/injection, schedule: Q01DX009 (ip), vehicle: Klucel (hydroxypropylcellulose) (HPC)
[2] = dose: 100.0 mg/kg/injection, schedule: Q04DX003 (ip), vehicle: Klucel (hydroxypropylcellulose) (HPC)
[3] = dose: 200.0 mg/kg/injection, schedule: Q01DX009 (ip), vehicle: Klucel (hydroxypropylcellulose) (HPC)
[4] = dose: 200.0 mg/kg/injection, schedule: Q04DX003 (ip), vehicle: Klucel (hydroxypropylcellulose) (HPC)
[5] = dose: 400.0 mg/kg/injection, schedule: Q01DX009 (ip), vehicle: Klucel (hydroxypropylcellulose) (HPC)
[6] = dose: 400.0 mg/kg/injection, schedule: Q04DX003 (ip), vehicle: Klucel (hydroxypropylcellulose) (HPC)
[7] = dose: 100.0 mg/kg/injection, schedule: Q01DX001 (ip), vehicle: saline
[8] = dose: 200.0 mg/kg/injection, schedule: Q01DX001 (ip), vehicle: saline
[9] = dose: 400.0 mg/kg/injection, schedule: Q01DX001 (ip), vehicle: saline
[10] = dose: 50.0 mg/kg/injection, schedule: Q01DX001 (ip), vehicle: carboxymethylcellulose (CMC)
[11] = dose: 400.0 mg/kg/injection, schedule: Q01DX001 (ip), vehicle: carboxymethylcellulose (CMC)
[12] = dose: 100.0 mg/kg/injection, schedule: Q04DX003 (ip), vehicle: acetone
[13] = dose: 200.0 mg/kg/injection, schedule: Q04DX003 (ip), vehicle: acetone
[14] = dose: 400.0 mg/kg/injection, schedule: Q04DX003 (ip), vehicle: acetone

Measured: T/C

O=C(Oc1ccccc1Cl)c1ccc(Cl)cc1Cl
inactive: [1] 91 % of control | [2] 93 % of control | [3] 90 % of control | [4] 96 % of control | [5] 91 % of control | [6] 98 % of control

Cc1ccc(S(=O)(=O)OCCOCCOc2ccc(C(C)(C)CC(C)(C)C)cc2)cc1
inactive: dose: 100.0 mg/kg/injection, schedule: Q01DX001 (ip), vehicle: acetone 97 % of control | dose: 100.0 mg/kg/injection, schedule: Q04DX003 (ip), vehicle: saline 98 % of control | dose: 200.0 mg/kg/injection, schedule: Q01DX001 (ip), vehicle: acetone 89 % of control | dose: 200.0 mg/kg/injection, schedule: Q04DX003 (ip), vehicle: saline 92 % of control | dose: 400.0 mg/kg/injection, schedule: Q01DX001 (ip), vehicle: acetone 87 % of control | dose: 400.0 mg/kg/injection, schedule: Q04DX003 (ip), vehicle: saline 91 % of control

CCSC(C)(C)C(C)(C#N)NNC(C)(C#N)C(C)(C)SCC (stereo unspecified)
inactive: [7] 101 % of control | [8] 95 % of control | [9] 93 % of control

CCCCCNS(=O)(=O)CCCC
inactive: dose: 100.0 mg/kg/injection, schedule: Q04DX002 (ip), vehicle: other 111 % of control | dose: 200.0 mg/kg/injection, schedule: Q04DX002 (ip), vehicle: other 96 % of control | dose: 400.0 mg/kg/injection, schedule: Q04DX002 (ip), vehicle: other 103 % of control

O=C(Cc1ccccc1)NCc1ccccc1
inactive: dose: 25.0 mg/kg/injection, schedule: Q01DX001 (ip), vehicle: saline 97 % of control | dose: 50.0 mg/kg/injection, schedule: Q01DX001 (ip), vehicle: saline 101 % of control | [7] 104 % of control | [8] 104 % of control

CC1=C(c2ccccc2)C(c2ccccc2)=C(C)C1=O
inactive: [10] 97 % of control | dose: 100.0 mg/kg/injection, schedule: Q01DX001 (ip), vehicle: carboxymethylcellulose (CMC) 95 % of control | dose: 200.0 mg/kg/injection, schedule: Q01DX001 (ip), vehicle: carboxymethylcellulose (CMC) 89 % of control | [11] 95 % of control

ClC1(Cl)C2CC(C3C4C=CC(C4)C32)C1(Cl)Cl (stereo unspecified)
inactive: [10] 88 % of control | [11] 101 % of control

Cc1cccc(Cl)c1NC(=O)c1cccc([N+](=O)[O-])c1
inactive: [1] 96 % of control | [3] 90 % of control | [5] 93 % of control

O=C(CCC1CCCC1)c1ccccc1
inactive: dose: 12.5 mg/kg/injection, schedule: Q04DX002 (ip), vehicle: saline 100 % of control | dose: 25.0 mg/kg/injection, schedule: Q04DX002 (ip), vehicle: saline 98 % of control | dose: 50.0 mg/kg/injection, schedule: Q04DX002 (ip), vehicle: saline 98 % of control | dose: 100.0 mg/kg/injection, schedule: Q04DX002 (ip), vehicle: saline 98 % of control | dose: 200.0 mg/kg/injection, schedule: Q04DX002 (ip), vehicle: saline 98 % of control | dose: 400.0 mg/kg/injection, schedule: Q04DX002 (ip), vehicle: saline 91 % of control

CC(C)(C)S(=O)(=O)CCCCS(=O)(=O)C(C)(C)C
inactive: [7] 102 % of control | dose: 100.0 mg/kg/injection, schedule: Q01DX009 (ip), vehicle: saline 104 % of control | [12] 100 % of control | [8] 94 % of control | dose: 200.0 mg/kg/injection, schedule: Q01DX009 (ip), vehicle: saline 96 % of control | [13] 96 % of control | [9] 88 % of control | dose: 400.0 mg/kg/injection, schedule: Q01DX009 (ip), vehicle: saline 105 % of control | [14] 89 % of control

Cc1cccc(NC(=O)Nc2cccc(C(F)(F)F)c2)n1
inactive: dose: 100.0 mg/kg/injection, schedule: Q01DX009 (ip), vehicle: gum acacia 92 % of control | dose: 200.0 mg/kg/injection, schedule: Q01DX009 (ip), vehicle: gum acacia 87 % of control | dose: 400.0 mg/kg/injection, schedule: Q01DX009 (ip), vehicle: gum acacia 89 % of control

O=C1Nc2ccccc2C(=O)Nc2ccccc21
inactive: [12] 98 % of control | [13] 93 % of control | [14] 101 % of control

O=C(Nc1ccc([N+](=O)[O-])cc1Cl)Oc1ccc(F)cc1
inactive: [2] 95 % of control | [4] 96 % of control | [6] 100 % of control

CC(=O)NNC(=O)c1ccccn1
inactive: dose: 4.0 mg/kg/injection, schedule: Q03HX024 (ip), vehicle: saline 109 % of control | dose: 8.0 mg/kg/injection, schedule: Q03HX008 (ip), vehicle: saline 96 % of control | dose: 8.0 mg/kg/injection, schedule: Q03HX016 (ip), vehicle: saline 111 % of control | dose: 8.0 mg/kg/injection, schedule: Q03HX024 (ip), vehicle: saline 105 % of control | dose: 16.0 mg/kg/injection, schedule: Q03HX008 (ip), vehicle: saline 105 % of control | dose: 16.0 mg/kg/injection, schedule: Q03HX016 (ip), vehicle: saline 98 % of control | dose: 16.0 mg/kg/injection, schedule: Q03HX024 (ip), vehicle: saline 104 % of control | dose: 32.0 mg/kg/injection, schedule: Q01DX009 (ip), vehicle: saline 104 % of control | dose: 32.0 mg/kg/injection, schedule: Q01DX009 (oral), vehicle: saline 102 % of control | dose: 32.0 mg/kg/injection, schedule: Q03HX008 (ip), vehicle: saline 103 % of control | dose: 32.0 mg/kg/injection, schedule: Q03HX016 (ip), vehicle: saline 104 % of control | dose: 32.0 mg/kg/injection, schedule: Q03HX024 (ip), vehicle: saline 108 % of control | dose: 32.0 mg/kg/injection, schedule: Q04DX003 (ip), vehicle: saline 108 % of control | dose: 64.0 mg/kg/injection, schedule: Q01DX001 (ip), vehicle: saline 102 % of control | dose: 64.0 mg/kg/injection, schedule: Q01DX001 (oral), vehicle: saline 106 % of control | dose: 64.0 mg/kg/injection, schedule: Q01DX009 (ip), vehicle: saline 108 % of control | dose: 64.0 mg/kg/injection, schedule: Q01DX009 (oral), vehicle: saline 114 % of control | dose: 64.0 mg/kg/injection, schedule: Q03HX008 (ip), vehicle: saline 109 % of control | dose: 64.0 mg/kg/injection, schedule: Q03HX016 (ip), vehicle: saline 111 % of control | dose: 64.0 mg/kg/injection, schedule: Q03HX024 (ip), vehicle: saline 117 % of control | dose: 64.0 mg/kg/injection, schedule: Q04DX003 (ip), vehicle: saline 100 % of control | dose: 64.0 mg/kg/injection, schedule: Q08DX002 (ip), vehicle: saline 104 % of control | dose: 75.0 mg/kg/injection, schedule: Q01DX Z (ip), vehicle: water 95 % of control and 105 % of control | dose: 100.0 mg/kg/injection, schedule: Q01DX Z (ip), vehicle: water 96 % of control and 103 % of control | dose: 128.0 mg/kg/injection, schedule: Q01DX001 (ip), vehicle: saline 100 % of control | dose: 128.0 mg/kg/injection, schedule: Q01DX001 (oral), vehicle: saline 108 % of control | dose: 128.0 mg/kg/injection, schedule: Q01DX009 (ip), vehicle: saline 124 % of control | dose: 128.0 mg/kg/injection, schedule: Q01DX009 (oral), vehicle: saline 119 % of control | dose: 128.0 mg/kg/injection, schedule: Q04DX003 (ip), vehicle: saline 103 % of control | dose: 128.0 mg/kg/injection, schedule: Q08DX002 (ip), vehicle: saline 103 % of control | dose: 150.0 mg/kg/injection, schedule: Q01DX Z (ip), vehicle: water 105 % of control and 89 % of control | dose: 256.0 mg/kg/injection, schedule: Q01DX001 (ip), vehicle: saline 109 % of control | dose: 256.0 mg/kg/injection, schedule: Q01DX001 (oral), vehicle: saline 108 % of control | dose: 256.0 mg/kg/injection, schedule: Q01DX009 (ip), vehicle: saline 103 % of control | dose: 256.0 mg/kg/injection, schedule: Q04DX003 (ip), vehicle: saline 105 % of control | dose: 256.0 mg/kg/injection, schedule: Q08DX002 (ip), vehicle: saline 109 % of control
